Assay results from patent US9597407B2, “Targeted antimicrobial moieties” (C3 Jian, Inc., priority 2009, dated 2017).
“Also recorded” adds a separate entry of the source.

System: bacteria
Test: Binding of targeting peptides to microorganisms (Table 3)
Conditions: peptide binding in aqueous buffers varied by peptide solubility; preferably 1x PBS

| Substance | Target(s) (microorganism bound by the targeting peptide) |
| --- | --- |
| 1T-6 (KFINGVLSQFVLERK; Peptide with targeting and/or antimicrobial activity) [Peptide 1T-6] | S. mutans |
| 1T-7 (SQRIIEPVKSPQPYPGFSVS; Peptide with targeting and/or antimicrobial activity) [Peptide 1T-7] | M. xanthus |
| 1T-8 (FSVAACGEQRAVTFVLLIEDLI; Peptide with targeting and/or antimicrobial activity) [Peptide 1T-8] | M. xanthus |
| 1T-9 (WAWAESPRCVSTRSNIHALAFRVEVAALT; Peptide with targeting and/or antimicrobial activity) [Peptide 1T-9] | M. xanthus |
| 1T-10 (SPAGLPGDGDEA; Peptide with targeting and/or antimicrobial activity) [Peptide 1T-10] | M. xanthus |
| 1T-11 (RISE; Peptide with targeting and/or antimicrobial activity) [Peptide 1T-11] | S. mutans; also recorded: S. epidermidis; also recorded: P. aeruginosa |
| 1T-12 (FGNIFKGLKDVIETIVKWTAAK; Peptide with targeting and/or antimicrobial activity) [Peptide 1T-12] | C. xerosis; also recorded: C. striatum; also recorded: S. epidermidis; also recorded: S. mutans |
| 1T-13 (FRSPCINNNSLQPPGVYPAR; Peptide with targeting and/or antimicrobial activity) [Peptide 1T-13] | S. aureus; also recorded: S. epidermidis; also recorded: P. aeruginosa |
| 1T-14 (ALAGLAGLISGK; Peptide with targeting and/or antimicrobial activity) [Peptide 1T-14] | S. mutans; also recorded: S. aureus; also recorded: S. epidermidis; also recorded: C. xerosis |
| 1T-15 (DVILRVEAQ; Peptide with targeting and/or antimicrobial activity) [Peptide 1T-15] | S. mutans |
| 1T-16 (IDMR; Peptide with targeting and/or antimicrobial activity) [Peptide 1T-16] | P. aeruginosa |
| 1T-17 (NNAIVYIS; Peptide with targeting and/or antimicrobial activity) [Peptide 1T-17] | S. mutans |
| 1T-18 (YSKTLHFAD; Peptide with targeting and/or antimicrobial activity) [Peptide 1T-18] | S. aureus; also recorded: S. epidermidis; also recorded: C. striatum; also recorded: P. aeruginosa |
| 1T-19 (PGAFRNPQMPRG; Peptide with targeting and/or antimicrobial activity) [Peptide 1T-19] | S. aureus; also recorded: S. epidermidis; also recorded: P. aeruginosa |
| 1T-20 (PALVDLSNKEAVWAVLDDHS; Peptide with targeting and/or antimicrobial activity) [Peptide 1T-20] | S. mutans; also recorded: P. aeruginosa |
| 1T-21 (YVEEAVRAALKKEARISTEDTPVNLPSFDC; Peptide with targeting and/or antimicrobial activity) [Peptide 1T-21] | S. mutans; also recorded: P. aeruginosa |
| 1T-22 (VPLDDGTRRPEVARNRDKDRED; Peptide with targeting and/or antimicrobial activity) [Peptide 1T-22] | S. epidermidis; also recorded: P. aeruginosa |
| 1T-23 (PALVDLSNKEAVWAVLDDHS; Peptide with targeting and/or antimicrobial activity) [Peptide 1T-23] | S. mutans; also recorded: P. aeruginosa |
| 1T-24 (EEAEEKLAEVSQAVKRLVR; Peptide with targeting and/or antimicrobial activity) [Peptide 1T-24] | P. aeruginosa |

| Substance | Target(s) (microorganism bound by the targeting peptide) |
| --- | --- |
| 1T-25 (VGLDVSVLVLFFGLQLLSVLLGAMIR; Peptide with targeting and/or antimicrobial activity) [Peptide 1T-25] | S. aureus; also recorded: S. epidermidis; also recorded: C. xerosis; also recorded: C. striatum; also recorded: P. aeruginosa |
| 1T-26 (LTILPTTFFAIIVPILAVAFIAYSGFKIKGIVEHKDQW; Peptide with targeting and/or antimicrobial activity) [Peptide 1T-26] | S. mutans; also recorded: S. aureus; also recorded: S. epidermidis; also recorded: C. jeikeium; also recorded: C. xerosis; also recorded: C. striatum; also recorded: P. aeruginosa |
| 1T-27 (ALFVSLEQFLVVVAKSVFALCHSGTLS; Peptide with targeting and/or antimicrobial activity) [Peptide 1T-27] | S. mutans; also recorded: S. aureus; also recorded: S. epidermidis; also recorded: C. jeikeium; also recorded: C. xerosis; also recorded: C. striatum; also recorded: P. aeruginosa |
| 1T-28 (VSRDEAMEFIDREWTTLQPAGKSHA; Peptide with targeting and/or antimicrobial activity) [Peptide 1T-28] | P. aeruginosa |
| 1T-29 (GSVIKKRRKRMSKKKHRKMLRRTRVQRRKLGK; Peptide with targeting and/or antimicrobial activity) [Peptide 1T-29] | S. epidermidis; also recorded: C. jeikeium; also recorded: C. xerosis; also recorded: C. striatum; also recorded: P. aeruginosa; also recorded: S. mutans; also recorded: S. aureus |
| 1T-30 (GKAKPYQVRQVLRAVDKLETRRKKGGR; Peptide with targeting and/or antimicrobial activity) [Peptide 1T-30] | S. aureus; also recorded: S. epidermidis; also recorded: C. xerosis; also recorded: C. striatum; also recorded: P. aeruginosa |
| 1T-31 (NATGTDIGEVTLTLGRFS; Peptide with targeting and/or antimicrobial activity) [Peptide 1T-31] | S. mutans; also recorded: P. aeruginosa |
| 1T-32 (VSFLAGWLCLGLAAWRLGNA; Peptide with targeting and/or antimicrobial activity) [Peptide 1T-32] | S. mutans |
| 1T-33 (VRTLTILVIFIFNYLKSISYKLKQPFENNLAQSMISI; Peptide with targeting and/or antimicrobial activity) [Peptide 1T-33] | S. aureus; also recorded: S. epidermidis; also recorded: C. jeikeium; also recorded: C. xerosis; also recorded: C. striatum; also recorded: P. aeruginosa |
| 1T-34 (AFWLNILLTLLGYIPGIVHAVYIIAKR; Peptide with targeting and/or antimicrobial activity) [Peptide 1T-34] | S. aureus; also recorded: S. epidermidis; also recorded: C. jeikeium; also recorded: C. xerosis; also recorded: C. striatum; also recorded: P. aeruginosa |
| 1T-35 (EICLTLVFPIRGSYSEAAKFPVPIHIVEDGTVELPK; Peptide with targeting and/or antimicrobial activity) [Peptide 1T-35] | P. aeruginosa |
| 1T-36 (VYRHLRFIDGKLVEIRLERK; Peptide with targeting and/or antimicrobial activity) [Peptide 1T-36] | S. aureus; also recorded: S. epidermidis; also recorded: C. jeikeium; also recorded: C. xerosis; also recorded: C. striatum; also recorded: P. aeruginosa |
| 1T-37 (YIVGALVILAVAGLIYSMLRKA; Peptide with targeting and/or antimicrobial activity) [Peptide 1T-37] | S. mutans; also recorded: S. aereus; also recorded: S. epidermidis; also recorded: C. jeikeium; also recorded: C. xerosis; also recorded: C. striatum; also recorded: P. aeruginosa |
| 1T-38 (VMFVLTRGRSPRPMIPAY; Peptide with targeting and/or antimicrobial activity) [Peptide 1T-38] | S. mutans; also recorded: S. aereus; also recorded: S. epidermidis; also recorded: C. jeikeium; also recorded: C. xerosis; also recorded: C. striatum; also recorded: P. aeruginosa |
| 1T-39 (FGFCVWMYQLLAGPPGPPA; Peptide with targeting and/or antimicrobial activity) [Peptide 1T-39] | S. mutans; also recorded: P. aeruginosa |
| 1T-40 (QRVSLWSEVEHEFR; Peptide with targeting and/or antimicrobial activity) [Peptide 1T-40] | S. mutans; also recorded: P. aeruginosa |
| 1T-41 (KRGSKIVIAIAVVLIVLAGVWVW; Peptide with targeting and/or antimicrobial activity) [Peptide 1T-41] | S. mutans; also recorded: S. aureus; also recorded: S. epidermidis; also recorded: C. jeikeium; also recorded: C. striatum; also recorded: P. aeruginosa |
| 1T-42 (TVLDWLSLALATGLFVYLLVALLRADRA; Peptide with targeting and/or antimicrobial activity) [Peptide 1T-42] | S. aureus; also recorded: S. epidermidis; also recorded: C. xerosis; also recorded: C. striatum; also recorded: P. aeruginosa |
| 1T-43 (DRCLSVLSWSPPKVSPLI; Peptide with targeting and/or antimicrobial activity) [Peptide 1T-43] | C. jeikium; also recorded: P. aeruginosa |
